Test results taken from PMC7179112, “Antimicrobial, Antioxidant, and Anticancer Activities of Some Novel Isoxazole Ring Containing Chalcone and Dihydropyrazole Derivatives” (Molecules, 2020).
≈ marks a conversion by molar mass, not a printed value.

Columns and labels:
Human Normal Cells (L02) = assay: MTT assay toxicity on normal cells; format: cell-based
Candida tropicalis = assay: Antifungal activity, serial tube dilution method; format: cell-based; details: read-out: MIC C tropicalis
Description: (§1) The target chalcones (17–31) and pyrazolines (32–46) were tested for their antimicrobial activities by serial tube dilution method against two types of bacterial and fungal strains (Table 1 and Table 2). The bacterial strains used for the testing, including Gram-positive Staphylococcus aureus and Gram-negative Pseudomonas aeruginosa, whereas the fungal strains employed were Aspergillus niger and Candida tropicalis.
(§2) The antibacterial and antifungal activity of the novel chalcones (17 to 31) and dihydropyrazoles (32 to 46) against the selected bacterial and fungal strains was assessed by following the procedure described in our previous paper.

Aspergillus niger = assay: Antifungal activity, serial tube dilution method; format: cell-based
Description: as §1, §2

[1] = DPPH free radical scavenging assay; details: antioxidant activity; average of three independent experiments
Description: The antioxidant activity of all 30 compounds was assessed using 1,1-diphenyl-2-picrylhydrazine (DPPH) free radical scavenging assay and the results are the average of three independent experiments (Table 3). Gallic acid was employed as a positive control. […] In the disubstituted series (20–25), compound 25 with substitutions at position 3 and 5 on the phenyl ring gave the highest activity of 9 µg/mL.
The purpose of this study was to evaluate the antioxidant activity of chalcones and pyrazolines using the DPPH free radical assay. The percentage of antioxidant activity (AA%) of all the compounds was assessed by the DPPH free radical assay. The measurement of the DPPH radical scavenging activity was performed according to methodology described by Brand-Williams et al. The samples were reacted with the stable DPPH radical in an ethanol solution. A 0.1 mM solution of DPPH was prepared by dissolving DPPH in methanol. Gallic acid was taken as a reference standard and different concentrations of test samples (5–100 µg/mL) and standard (1.0, 2.5, and 5.0 µg/mL) were prepared using methanol. One milliliter of 0.1 mM DPPH solution was added to 3 mL of all concentrations of test samples and standard separately. These mixtures were kept in dark for about 30 min and the absorbance was measured at 517 nm. The capability to scavenge the DPPH radical was calculated using the formula:(1) DPPH scavanged (%)= Absorbance of control−Absorbance of sample/Absorbance of control∗100 when DPPH reacted with an antioxidant compound and was reduced, the change in color (from deep violet to light yellow) was read [Absorbance (Abs)] at 517 nm after […] of reaction using a UV-VIS spectrophotometer.

[2] = system: prostate cancer cell line, DU-145; assay: MTT assay anticancer activity; format: cell-based; details: for IC50: Homo sapiens, MTT assay, mean ± SD (n = 3)
Description: All the 30 compounds were evaluated for their anticancer potency against the prostate cancer cell line, DU-145, employing colorimetric tetrazolium dye (MTT) assay. […] Among the disubstituted series 20–25, substitution at position 3 and 4 (compound 24) produced the best activity but was lower than the standard. […] Similar phenomena can be seen among the dihydropyrazole series.
The in vitro anticancer activity of chalcones (17 to 31) and dihydropyrazoles (32 to 46) was evaluated by the Mosmann’s MTT assay as described previously.

Pseudomonas aeruginosa = assay: Antibacterial activity, serial tube dilution method; format: cell-based; details: Pseudomonas aeruginosa; Gram-negative; serial tube dilution; read-out: MIC P aeruginosa
Description: as §1, §2

Staphylococcus aureus = assay: as above; format: cell-based; details: Staphylococcus aureus; Gram-positive; serial tube dilution; read-out: MIC S aureus
Description: as §1, §2

[3] = system: Aspergillus niger and Candida tropicalis; assay: Antifungal activity (strain not named); format: cell-based; details: text/figure value, strain not named
Description: as §1, §2

SMILES	IC50 (Human Normal Cells (L02)) [µg/mL]	MIC (Candida tropicalis) [µg/mL]	MIC (Aspergillus niger) [µg/mL]	DPPH assay IC50 [1]	IC50 [2] [µg/mL]	MIC (Pseudomonas aeruginosa) [µg/mL]	MIC (Staphylococcus aureus) [µg/mL]	MIC [3] [µg/mL]	Anticancer potency MIC ([2]; given as MIC in text/Figure 3) [µg/mL]
COc1ccc(/C=C/C(=O)c2ccno2)cc1OC [Compound 24]	> 40	64 (≈ 247 µM)	128 (≈ 494 µM)	29 ± 1 µg/mL	6 ± 2 (≈ 23.1 µM)	32 (≈ 123 µM)	64 (≈ 247 µM)		
COc1ccccc1C1CC(c2ccno2)=NN1C(N)=O (centres unmarked) [Compound 34]	> 40	8 (≈ 27.9 µM)	8 (≈ 27.9 µM)	38 ± 2 µg/mL	32 ± 2 (≈ 112 µM)	16 (≈ 55.9 µM)	16 (≈ 55.9 µM)	8 (≈ 27.9 µM)	
O=C(O)c1cc(O)c(O)c(O)c1 [Gallic acid, reference compound]				Gallic acid 5 ± 1 µg/mL					
OC(Cn1cncn1)(Cn1cncn1)c1ccc(F)cc1F [Fluconazole, reference compound]		1 (≈ 3.27 µM)	1 (≈ 3.27 µM)					1 (≈ 3.27 µM)	
COc1cc(C2CC(c3ccno3)=NN2C(N)=O)cc(OC)c1OC (centres unmarked) [Compound 44]	> 40	16 (≈ 46.2 µM)	16 (≈ 46.2 µM)	12 ± 2 µg/mL	5 ± 2 (≈ 14.4 µM)	256 (≈ 739 µM)	64 (≈ 185 µM)		
COc1ccc(OC)c(/C=C/C(=O)c2ccno2)c1 [Compound 22]	> 40	64 (≈ 247 µM)	64 (≈ 247 µM)	26 ± 2 µg/mL	38 ± 1 (≈ 147 µM)	32 (≈ 123 µM)	32 (≈ 123 µM)		
COc1ccc(OC)c(C2CC(c3ccno3)=NN2C(N)=O)c1 (centres unmarked) [Compound 37]	> 40	32 (≈ 101 µM)	32 (≈ 101 µM)	39 ± 2 µg/mL	31 ± 2 (≈ 98 µM)	32 (≈ 101 µM)	64 (≈ 202 µM)		
COc1cccc(C2CC(c3ccno3)=NN2C(N)=O)c1 (centres unmarked) [Compound 33]	> 40	64 (≈ 224 µM)	64 (≈ 224 µM)	51 ± 2 µg/mL	18 ± 2 (≈ 62.9 µM)	128 (≈ 447 µM)	128 (≈ 447 µM)		
COc1ccccc1/C=C/C(=O)c1ccno1 [Compound 19]	> 40	16 (≈ 69.8 µM)	8 (≈ 34.9 µM)	32 ± 2 µg/mL	36 ± 1 (≈ 157 µM)	4 (≈ 17.4 µM)	4 (≈ 17.4 µM)		
COc1ccc(C2CC(c3ccno3)=NN2C(N)=O)c(OC)c1 (centres unmarked) [Compound 36]	> 40	8 (≈ 25.3 µM)	4 (≈ 12.6 µM)	25 ± 2 µg/mL	26 ± 2 (≈ 82.2 µM)	8 (≈ 25.3 µM)	8 (≈ 25.3 µM)		
COc1ccc(/C=C/C(=O)c2ccno2)c(OC)c1 [Compound 21]	> 40	16 (≈ 61.7 µM)	8 (≈ 30.9 µM)	18 ± 2 µg/mL	29 ± 2 (≈ 112 µM)	4 (≈ 15.4 µM)	2 (≈ 7.71 µM)		
COc1ccc(C2CC(c3ccno3)=NN2C(N)=O)cc1OC (centres unmarked) [Compound 39]	> 40	32 (≈ 101 µM)	32 (≈ 101 µM)	49 ± 1 µg/mL	4 ± 2 (≈ 12.6 µM)	64 (≈ 202 µM)	128 (≈ 405 µM)		4
COc1cccc(C2CC(c3ccno3)=NN2C(N)=O)c1OC (centres unmarked) [Compound 35]	> 40	16 (≈ 50.6 µM)	16 (≈ 50.6 µM)	32 ± 1 µg/mL	16 ± 2 (≈ 50.6 µM)	64 (≈ 202 µM)	64 (≈ 202 µM)		
